Earlier results as cited in patent US20150082465A1, “System and Method for Whole-Animal High-Throughput Compound Screening” (System959, LLC, priority 2013, published 2015).

Test system: C. elegans
Details: by antagonizing egl-19, an L-type calcium channel

SMILES: CCOC(=O)C1=C(C)NC(C)=C(C(=O)OCC)C1c1c(F)c(F)c(F)c(F)c1F [Nemadipine]
- growth of C. elegans: inhibit the growth
